Earlier results in patent US20240001339A1, “DRYING PROCESSES FOR BIO-COMPATIBLE SPME COATINGS” (SIGMS-ALDRICH CO. LLC, priority 2020, published 2024).

Assays:
[1] = for conventional SPME devices

Log p: 2.45
pKa: 13.9
reference protein binding [1]: 70-80%
SMILES: NC(=O)N1c2ccccc2C=Cc2ccccc21 [Carbamazepine]
